According to patent US12545654B2 (STEMSYNERGY THERAPEUTICS, INC., priority 2020, dated 2026):

Tested on: N-myc protein
Test: In-cell immunostaining assay for decrease of N-myc protein level in neuroblastoma cells
Type: cell-based
Conditions: human neuroblastoma cell lines (Kelly, IMR32, SK-N-BE(2)); treated overnight or up to 3 days; N-myc signal normalized over total protein; read-out: Activity (EC50 for decreasing N-myc protein level)
Protocol: Human neuroblastoma cell lines were obtained from either Millipore Sigma, St. Louis, MO (Kelly cells) or American Type Culture Collection, Manassas, VA (IMR32 and SK-N-BE(2) cells). Cells were cultured in RPMI1640 medium (Corning, New York, NY), supplemented with 10% fetal bovine serum, 100 unit/mL penicillin and 100 μg/mL streptomycin (Corning, New York, NY) at 37 degree Celsius with 5% CO2 in air atmosphere. Cells cultured in flat clear bottom, black 96-well plates (Corning, New York, NY) were treated with different concentrations of a compound of the invention, which was dissolved in the culture media (200 μL/well), overnight or up to 3 days. Cells were fixed with 4% paraformaldehyde (in Phosphate-Buffered Saline or PBS, 100 μL/well) for 30 minutes at room temperature. Cells were briefly washed three times with PBS afterwards, and then treated with PBS containing 0.1% Triton X-100 (100 μL/well) for 30 minutes at room temperature. For […], cells were further treated with PBS containing 0.01% IRDye 700DX NHS Ester (LI-COR Biosciences, Lincoln, NE. 100 μL/well) for 30 minutes at room temperature. Cells were again washed three times with PBS, and then treated with a Tris-buffered saline solution with 0.1% Tween 20 (TBST) and 5% non-fat milk (50 μL/well) for 1 hour at room temperature. Cells were then treated with TBST with 5% non-fat milk (50 μL/well) containing a mouse anti N-Myc antibody (Clone B8.4.B, 1:500 dilution, Santa Cruz Biotechnology, Santa Cruz, CA), or a combination of a rabbit anti-Histone H3 (phospho S10) antibody (Clone EPR17246, 1:10000 dilution, abcam, Cambridge, MA) and a mouse anti-Histone H3 antibody (Clone 1G1, 1:250 dilution, Santa Cruz Biotechnology, Santa Cruz, CA) overnight at 4 degree Celsius in the dark. Cells were washed three times with TBST, and then treated with TBST with 5% non-fat milk (50 μL/well) containing an IRDye 800CW donkey anti-mouse IgG antibody (1:1000 dilution, LI-COR Biosciences, Lincoln, NE) for N-myc staining, or IRDye® 800CW donkey anti-rabbit IgG and IRDye 680RD donkey anti-mouse IgG antibodies (1:1000 dilution, LI-COR Biosciences, Lincoln, NE) for Histone H3 (phospho S10) and Histone H3 staining, incubated for 1 hour at room temperature in the dark. Cells were then washed four times with TBST and the plate was scanned using an Odyssey 9120 Imaging System (LI-COR Biosciences, Lincoln, NE). Signals for N-myc, total protein, Histone H3 (phospho S10), and Histone H3 were obtained from the images using the ImageStudio software (Version 4.0.21, LI-COR Biosciences, Lincoln, NE). Normalized signals for N-myc (over total protein), and Histone H3 (phospho S10) (over Histone H3) were plotted in Prism 7 software (GraphPad Software, San Diego, CA). A four-parameter dose-response curve was fitted using a variable slope model and the EC50 was calculated in Prism 7 software (GraphPad Software, San Diego, CA).

O=C(Nc1cccc(C(F)(F)F)c1)c1sc(NC(=O)C2(C(=O)Nc3ccc(F)cc3)CC2)nc1-c1ccccc1
EC50: > 1000 nM

O=C(Nc1ccc(Cl)c(Cl)c1)c1sc(NC(=O)C2(C(=O)Nc3ccc(F)cc3)CC2)nc1-c1ccccc1
EC50: > 1000 nM

O=C(Nc1ccc(Cl)c(Cl)c1)c1sc(NC(=O)C2(C(=O)Nc3ccc(F)cc3)CC2)nc1C1CC1
EC50: > 1000 nM

Cc1nc(NC(=O)C2(C(=O)Nc3ccc(F)cc3)CC2)sc1C(=O)Nc1cc(C(F)(F)F)ccc1Cl [SSTA-0152, N-(5-((2-chloro-5-(trifluoromethyl)phenyl)carbamoyl)-4-methylthiazol-2-yl)-N-(4-fluorophenyl)cyclopropane-1,1-dicarboxamide]
EC50: 250 to 1000 nM

Cc1nc(NC(=O)C2(C(=O)Nc3cccc(C(F)(F)F)c3)CC2)sc1C(=O)Nc1cc(C(F)(F)F)ccc1Cl [SSTA-0168, N-(5-((2-chloro-5-(trifluoromethyl)phenyl)carbamoyl)-4-methylthiazol-2-yl)-N-(3-(trifluoromethyl)phenyl)cyclopropane-1,1-dicarboxamide]
EC50: > 1000 nM

Cc1nc(NC(=O)C2(C(=O)Nc3ccc(Cl)cc3)CC2)sc1C(=O)Nc1cc(C(F)(F)F)ccc1Cl [SSTA-0169, N-(5-((2-chloro-5-(trifluoromethyl)phenyl)carbamoyl)-4-methylthiazol-2-yl)-N-(4-chlorophenyl)cyclopropane-1,1-dicarboxamide]
EC50: > 1000 nM

Cc1nc(NC(=O)C2(C(=O)Nc3ccccc3Cl)CC2)sc1C(=O)Nc1cc(C(F)(F)F)ccc1Cl [SSTA-0170, N-(5-((2-chloro-5-(trifluoromethyl)phenyl)carbamoyl)-4-methylthiazol-2-yl)-N-(2-chlorophenyl)cyclopropane-1,1-dicarboxamide]
EC50: > 1000 nM

Cc1nc(NC(=O)C2(C(=O)Nc3cccc(F)c3)CC2)sc1C(=O)Nc1cc(C(F)(F)F)ccc1Cl [SSTA-0171, N-(5-((2-chloro-5-(trifluoromethyl)phenyl)carbamoyl)-4-methylthiazol-2-yl)-N-(3-fluorophenyl)cyclopropane-1,1-dicarboxamide]
EC50: > 1000 nM

Cc1nc(NC(=O)C2(C(=O)Nc3ccc(F)cc3)CC2)oc1C(=O)Nc1cccc(C(F)(F)F)c1 [SSTA-0190, N-(4-fluorophenyl)-N-(4-methyl-5-((3-(trifluoromethyl)phenyl)carbamoyl)oxazol-2-yl)cyclopropane-1,1-dicarboxamide]
EC50: > 1000 nM

Cc1nc(NC(=O)C2(C(=O)Nc3ccc(F)cc3)CC2)oc1C(=O)Nc1ccc(Cl)c(Cl)c1 [SSTA-0191, N-(5-((3,4-dichlorophenyl)carbamoyl)-4-methyloxazol-2-yl)-N-(4-fluorophenyl)cyclopropane-1,1-dicarboxamide]
EC50: > 1000 nM

O=C(Nc1ccc(Cl)c(Cl)c1)c1sc(NC(=O)C2(C(=O)Nc3ccc(F)cc3)CC2)nc1C(F)(F)F [SSTA-0194, N-(5-((3,4-dichlorophenyl)carbamoyl)-4-(trifluoromethyl)thiazol-2-yl)-N-(4-fluorophenyl)cyclopropane-1,1-dicarboxamide]
EC50: > 1000 nM

O=C(Nc1cc(C(F)(F)F)ccc1Cl)c1sc(NC(=O)C2(C(=O)Nc3ccc(F)cc3)CC2)nc1C(F)(F)F [SSTA-0217, N-(5-((2-chloro-5-(trifluoromethyl)phenyl)carbamoyl)-4-(trifluoromethyl)thiazol-2-yl)-N-(4-fluorophenyl)cyclopropane-1,1-dicarboxamide]
EC50: 250 to 1000 nM

O=C(Nc1cc(C(F)(F)F)ccc1Cl)c1sc(NC(=O)C2(C(=O)Nc3ccc(F)cc3)CC2)nc1C1CC1 [SSTA-0218, N-(5-((2-chloro-5-(trifluoromethyl)phenyl)carbamoyl)-4-cyclopropylthiazol-2-yl)-N-(4-fluorophenyl)cyclopropane-1,1-dicarboxamide]
EC50: 250 to 1000 nM

Cc1nc(-c2ccc(NC(=O)C3(C(=O)Nc4nc(C)c(C(=O)Nc5cc(C(F)(F)F)ccc5Cl)s4)CC3)cc2)no1 [SSTA-0229, N-(5-((2-chloro-5-(trifluoromethyl)phenyl)carbamoyl)-4-methylthiazol-2-yl)-N-(4-(5-methyl-1,2,4-oxadiazol-3-yl)phenyl)cyclopropane-1,1-dicarboxamide]
EC50: > 1000 nM

COc1cc(NC(=O)C2(C(=O)Nc3nc(C)c(C(=O)Nc4cc(C(F)(F)F)ccc4Cl)s3)CC2)cc(C(F)(F)F)c1 [SSTA-0234, N-(5-((2-chloro-5-(trifluoromethyl)phenyl)carbamoyl)-4-methylthiazol-2-yl)-N-(3-methoxy-5-(trifluoromethyl)phenyl)cyclopropane-1,1-dicarboxamide]
EC50: 250 to 1000 nM

Cc1nc(NC(=O)C2(C(=O)Nc3ccc(Cl)c(F)c3)CC2)sc1C(=O)Nc1cc(C(F)(F)F)ccc1Cl [SSTA-0236, N-(4-chloro-3-fluorophenyl)-N-(5-((2-chloro-5-(trifluoromethyl)phenyl)carbamoyl)-4-methylthiazol-2-yl)cyclopropane-1,1-dicarboxamide]
EC50: 250 to 1000 nM

Cc1nc(NC(=O)C2(C(=O)Nc3cc(F)cc(Cl)c3)CC2)sc1C(=O)Nc1cc(C(F)(F)F)ccc1Cl [SSTA-0237, N-(5-((2-chloro-5-(trifluoromethyl)phenyl)carbamoyl)-4-methylthiazol-2-yl)-N-(3-chloro-5-fluorophenyl)cyclopropane-1,1-dicarboxamide]
EC50: 250 to 1000 nM

Cc1nc(NC(=O)C2(C(=O)Nc3ccc(F)c(F)c3)CC2)sc1C(=O)Nc1cc(C(F)(F)F)ccc1Cl [SSTA-0238, N-(5-((2-chloro-5-(trifluoromethyl)phenyl)carbamoyl)-4-methylthiazol-2-yl)-N-(3,4-difluorophenyl)cyclopropane-1,1-dicarboxamide]
EC50: 250 to 1000 nM

Cc1nc(NC(=O)C2(C(=O)Nc3cc(F)ccc3F)CC2)sc1C(=O)Nc1cc(C(F)(F)F)ccc1Cl [SSTA-0239, N-(5-((2-chloro-5-(trifluoromethyl)phenyl)carbamoyl)-4-methylthiazol-2-yl)-N-(2,5-difluorophenyl)cyclopropane-1,1-dicarboxamide]
EC50: > 1000 nM

COc1c(F)cccc1NC(=O)C1(C(=O)Nc2nc(C)c(C(=O)Nc3cc(C(F)(F)F)ccc3Cl)s2)CC1 [SSTA-0240, N-(5-((2-chloro-5-(trifluoromethyl)phenyl)carbamoyl)-4-methylthiazol-2-yl)-N-(3-fluoro-2-methoxyphenyl)cyclopropane-1,1-dicarboxamide]
EC50: > 1000 nM

COc1cc(F)cc(NC(=O)C2(C(=O)Nc3nc(C)c(C(=O)Nc4cc(C(F)(F)F)ccc4Cl)s3)CC2)c1 [SSTA-0241, N-(5-((2-chloro-5-(trifluoromethyl)phenyl)carbamoyl)-4-methylthiazol-2-yl)-N-(3-fluoro-5-methoxyphenyl)cyclopropane-1,1-dicarboxamide]
EC50: 250 to 1000 nM

Cc1nc(NC(=O)C2(C(=O)Nc3ccc(F)cc3OC(C)C)CC2)sc1C(=O)Nc1cc(C(F)(F)F)ccc1Cl [SSTA-0242, N-(5-((2-chloro-5-(trifluoromethyl)phenyl)carbamoyl)-4-methylthiazol-2-yl)-N-(4-fluoro-2-isopropoxyphenyl)cyclopropane-1,1-dicarboxamide]
EC50: > 1000 nM

Cc1nc(NC(=O)C2(C(=O)Nc3ccc(F)cc3Cl)CC2)sc1C(=O)Nc1cc(C(F)(F)F)ccc1Cl [SSTA-0247, N-(2-chloro-4-fluorophenyl)-N-(5-((2-chloro-5-(trifluoromethyl)phenyl)carbamoyl)-4-methylthiazol-2-yl)cyclopropane-1,1-dicarboxamide]
EC50: > 1000 nM

Cc1nc(NC(=O)C2(C(=O)Nc3ccc(F)cc3F)CC2)sc1C(=O)Nc1cc(C(F)(F)F)ccc1Cl [SSTA-0248, N-(5-((2-chloro-5-(trifluoromethyl)phenyl)carbamoyl)-4-methylthiazol-2-yl)-N-(2,4-difluorophenyl)cyclopropane-1,1-dicarboxamide]
EC50: > 1000 nM

Cc1nc(NC(=O)C2(C(=O)Nc3cc(C(F)(F)F)ccc3Cl)CC2)sc1C(=O)Nc1cc(C(F)(F)F)ccc1Cl [SSTA-0250, N-(2-chloro-5-(trifluoromethyl)phenyl)-N-(5-((2-chloro-5-(trifluoromethyl)phenyl)carbamoyl)-4-methylthiazol-2-yl)cyclopropane-1,1-dicarboxamide]
EC50: 250 to 1000 nM
